This assay addresses T1, STEP (280–566) catalytic domain (Homo sapiens, UniProt P54829).
T1 construct: the codon-optimized STEP (280–566) catalytic domains; His tag (pET-15b) (N); made in house; host or cells: E. coli BL21(DE3)
T1 sequence (P54829 280-565 limits assumed): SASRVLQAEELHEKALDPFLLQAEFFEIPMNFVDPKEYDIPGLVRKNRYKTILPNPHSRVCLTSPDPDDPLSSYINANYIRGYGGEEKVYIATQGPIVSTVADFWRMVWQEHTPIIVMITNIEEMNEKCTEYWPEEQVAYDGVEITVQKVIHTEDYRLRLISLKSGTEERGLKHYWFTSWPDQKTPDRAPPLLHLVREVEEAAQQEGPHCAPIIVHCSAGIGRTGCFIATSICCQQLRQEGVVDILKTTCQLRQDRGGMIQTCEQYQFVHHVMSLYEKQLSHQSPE
The assay is described as follows: DiFMUP phosphatase inhibition assay, STEP. Type of assay: biochemical. To be noted: for IC50: catalytic domain, DiFMUP at Km (4 μM); for selectivity for SHP2 over STEP: from IC50 values against catalytic domains. As for the experimental part: Selectivity is one of the biggest challenges in PTP inhibitor development. […] Similar to SHP2, we adapted a 384-well plate format DiFMUP assay for recombinant PTP1B and STEP and performed Michaelis–Menten experiments to determine DiFMUP Km values for each phosphatase. IC50 values of our inhibitors for PTP1B and STEP were determined in 10-point dose–response assays with DiFMUP used at the concentration corresponding to the respective Km value. […] Other inhibitors with good relative selectivity for SHP2 included SBI-4668 (13-fold selective over PTP1B; 73-fold selective over STEP) and SBI-3404 (fivefold selective over PTP1B; >71-fold selective over STEP).
Recombinant human full-length SHP2 (1–594) WT and E76K mutants, as well as the SHP2cat (248–527), were expressed and purified as described before ([36], [41]). Recombinant human PTP1B (1–300) and the codon-optimized STEP (280–566) catalytic domains were cloned into PET-15b and expressed as N-His-tagged fusion proteins. For expression, transformed BL21(DE3) cells were grown and induced similar as described for SHP2. Collected cells were resuspended in lysis buffer (25 mM Tris, pH 7.5, 300 mM NaCl, 50 mM imidazole, and 10% glycerol) with 100 mg/l RNaseA and were lysed with two passages using a microfluidizer. The lysate was clarified by centrifugation at 15,000g for 50 min and applied to nickel–nitrilotriacetic acid resin. The column resin was washed, and the PTP1B or STEP protein was eluted in lysis buffer at 300 mM imidazole. The PTP1B or STEP protein was further purified by S75 size-exclusion chromatography in 50 mM Tris, pH 7.5, 50 mM NaCl. The eluted peak fractions were supplemented with tris(2-carboxyethyl)phosphine to 10 mM, concentrated by ultrafiltration, and stored at −80 °C. The purified yield of PTP1B was 33 mg/l cell culture; the yield of STEP was 16 mg/l cell culture.
SHP2 inhibitors were tested at RT in a 384-well plate format standard phosphatase fluorescence intensity assay using DiFMUP (Invitrogen/Thermo Fisher Scientific) as a substrate and a total reaction volume of 25 μl. SHP2 inhibitors or vehicle (DMSO) were spotted in triplicate into a black Greiner FLUOTRAC 200 384-well microplate (catalog no.: 781076; Greiner) for a 10-point dose–response assay using an Echo 555 Liquid Handler (Labcyte, Inc). PTP working solutions were prepared at a 0.625 nM concentration (for a final concentration of 0.5 nM) in buffer containing 50 mM Bis–Tris, pH 6.0, 50 mM NaCl, 5 mM DTT, and 0.01% Tween-20. Prior to the assay, a dually phosphorylated IRS-1 peptide (625 nM [500 nM final] ([30])) was added to full-length WT SHP2 working solutions and incubated for 20 min. DiFMUP working solutions at 5× final concentration were prepared in 50 mM Bis–Tris, pH 6.0, 50 mM NaCl, and 0.01% Tween-20. About 20 μl of PTP working solution was dispensed into the microplate and incubated with inhibitor for 20 min at RT. […] The reaction was initiated by addition of 5 μl DiFMUP working solutions. Fluorescence intensity was measured in kinetic mode (every minute for 7 or 10 min) using a Tecan Spark Multimode Microplate Reader (Tecan) with an excitation wavelength of 360 nm and an emission wavelength of 460 nm. The initial rates were determined from the linear progression curves of the PTP reaction. The nonenzymatic hydrolysis of the substrate was corrected by using a control without addition of enzyme. IC50 values were calculated from the corrected initial rates by nonlinear regression using the program GraphPad Prism, version 8 (GraphPad Software, Inc) software. Dose–response inhibition assays of SHP2cat using the substrate OMFP were performed similarly as described previously for DiFMUP. OMFP was used at a concentration corresponding to its Km value for SHP2cat (50 μM final). Fluorescence intensity was measured in kinetic mode (every minute for 10 min) using a Tecan Spark Multimode Microplate Reader with an excitation wavelength of 485 nm and an emission wavelength of 535 nm. […]

The structures appear in SMILES notation.

What is called IC50 is the concentration at which inhibition is half-maximal. `O=C1CCCC1=Cc1ccc(-c2ccc(O)c(C(=O)Nc3ccccc3)c2)o1` [SBI-3192, 2-Hydroxy-5-(5-((2-oxocyclopentylidene)methyl)furan-2-yl)-N-phenylbenzamide] yielded an IC50 of 27 µM.

Turning to `O=C(Nc1ccccc1)c1cc(-c2ccc(/C=C3\Sc4ccccc4C3=O)o2)ccc1O` [SBI-4668, (Z)-2-Hydroxy-5-(5-((3-oxobenzo[b]thiophen-2(3H)-ylidene)methyl)furan-2-yl)-N-phenylbenzamide], the IC50 was 53 µM and the “selectivity for SHP2 over STEP” value is recorded as 73 fold.

On to `N#Cc1cc(-c2ccc(/C=C3\Sc4ccccc4C3=O)o2)ccc1O` [SBI-3404, (Z)-2-Hydroxy-5-(5-((3-oxobenzo[b]thiophen-2(3H)-ylidene)methyl)furan-2-yl)benzonitrile], for which the “selectivity for SHP2 over STEP” value was over 71 fold.

On to `O=C1/C(=C/c2ccc(-c3ccc(O)c(-c4nn[nH]n4)c3)o2)Sc2ccccc21` [SBI-3405, (Z)-2-((5-(4-Hydroxy-3-(2H-tetrazol-5-yl)phenyl)furan-2-yl)methylene)benzo[b]thiophen-3(2H)-one], for which the IC50 was determined as 7.7 µM.

Take `Nc1ccc(NC(=O)c2cc(-c3ccc(/C=C4\Sc5ccccc5C4=O)o3)ccc2O)cc1` [SBI-2130, (Z)-N-(4-Aminophenyl)-2-hydroxy-5-(5-((3-oxobenzo[b]thiophen-2(3H)-ylidene)methyl)furan-2-yl)benzamide]: the IC50 amounted to 44 µM and the “selectivity for SHP2 over STEP” value was 200 fold.

The values are drawn from publication PMC8760490, “Discovery of novel furanylbenzamide inhibitors that target oncogenic tyrosine phosphatase SHP2 in leukemia cells” (The Journal of Biological Chemistry, 2021).
